Experimental data as given in publication PMC2755957 (The Journal of Biological Chemistry, 2009).
Positions count from the first letter of the chain named.

Legend:
[1] = biological target: T1, mouse Δ1–24-L-PGDS (lipocalin type prostaglandin D synthase) (Mus musculus, UniProt O09114, S45A); assay: surface plasmon resonance; format: binding
T1 sequence (O09114 25-189 S45A): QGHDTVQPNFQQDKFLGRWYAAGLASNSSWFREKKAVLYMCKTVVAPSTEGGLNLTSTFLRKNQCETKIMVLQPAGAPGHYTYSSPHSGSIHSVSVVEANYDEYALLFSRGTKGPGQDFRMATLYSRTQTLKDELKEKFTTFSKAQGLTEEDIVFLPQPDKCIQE

[2] = biological target: T2, mouse Δ1–24-L-PGDS (lipocalin type prostaglandin D synthase) (Mus musculus, UniProt O09114, H116A); assay: surface plasmon resonance; format: binding
T2 sequence (O09114 25-189 H116A): T1 sequence (O09114 25-189 S45A) with A21S, H92A

[3] = biological target: T3, mouse Δ1–24-L-PGDS (lipocalin type prostaglandin D synthase) (Mus musculus, UniProt O09114, H111A); assay: surface plasmon resonance; format: binding
T3 sequence (O09114 25-189 H111A): T1 sequence (O09114 25-189 S45A) with A21S, H87A

[4] = biological target: T4, Δ^1–24-L-PGDS + S45A/S81A (Mus musculus, UniProt O09114, S45A/S81A); assay: biochemical
T4 sequence (O09114 1-189 S45A/S81A): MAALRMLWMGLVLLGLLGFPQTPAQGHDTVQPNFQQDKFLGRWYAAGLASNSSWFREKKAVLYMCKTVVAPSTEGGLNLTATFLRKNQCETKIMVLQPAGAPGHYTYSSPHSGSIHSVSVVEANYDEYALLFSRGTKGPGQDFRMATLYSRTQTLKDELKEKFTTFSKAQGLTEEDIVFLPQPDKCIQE

[5] = biological target: T5, Δ^1–24-C65A + P110A (Mus musculus, UniProt O09114, C65A/P110A); assay: biochemical
T5 sequence (O09114 1-189 C65A/P110A): T4 sequence (O09114 1-189 S45A/S81A) with A45S, C65A, A81S, P110A

[6] = biological target: T6, Δ^1–24-L-PGDS + P110A (Mus musculus, UniProt O09114, P110A); assay: biochemical
T6 sequence (O09114 1-189 P110A): T4 sequence (O09114 1-189 S45A/S81A) with A45S, A81S, P110A

[7] = biological target: T2, mouse Δ1–24-L-PGDS (lipocalin type prostaglandin D synthase); assay: biochemical

Row | Kd [1] [µM] | Kd [2] [µM] | Kd [3] [µM] | Kd [4] [µM] | Kd [5] [µM] | Kd [6] [µM] | Kd [7] [µM] | SMILES
1 | 16.2 ± 1.4 | 48.5 ± 4.4 | 20.3 ± 1.3 | 19.1 ± 2.6 | – | – | – | CCCCC[C@H](O)/C=C/[C@@H]1[C@@H](C/C=C\CCCC(=O)O)[C@H]2CO[C@@H]1C2 [U-46619]
2 | 15.2 ± 2.4 | – | 20.6 ± 2.3 | – | 22.4 ± 1.4 | 13.5 ± 3.1 | 27.3 ± 2.5 | CCCCC[C@H](O)/C=C/[C@H]1[C@@H]2CO[C@@H](C2)[C@@H]1C/C=C\CCCC(=O)O [U-44069]
